From patent US8680113B2, “BMI-1 protein expression modulators” (PTC Therapeutics, Inc., priority 2008, dated 2014)
Like-named read-outs stand apart in the source and are kept apart here.

Tests used:
Bmi-1 [1] = experiment: Cell Model Assay: Bmi-1 expression in HT1080; type: cell-based, human; conditions: HT1080 (fibrosarcoma)
Method: (§1) Using assay conditions known to those skilled in the art, the ability of the compounds described herein to reduce Bmi-1 expression in HT1080 (fibrosarcoma), U87-MG (glioblastoma), T98G (glioblastoma), K562 (chronic myelogenous leukemia) and KG1 (acute myelogenous leukemia) cell lines was tested (at test compound concentrations calculated from the ELISA assay data shown in Example 1) compared to puromycin as a control to provide the EC50 values shown in Table 2. The term “ND” means that data was not determined.

Bmi-1 [2] = experiment: Cell Model Assay: Bmi-1 expression in U87-MG; type: cell-based; conditions: U87-MG (glioblastoma)
Method: as §1

Bmi-1 [3] = experiment: Cell Model Assay: Bmi-1 expression in T98G; type: cell-based; conditions: T98G (glioblastoma)
Method: as §1

MCL-Mino = experiment: Mantle Cell Lymphoma Assay: cytotoxicity, Mino; type: cell-based; conditions: MCL-Mino, 72 hrs; for viability at 0.004 µM / viability at 0.037 µM / viability at 0.11 µM / viability at 0.33 µM / viability at 1 µM / viability at 3 µM: Homo sapiens, read-out: Cell Viability (%)
Source text: (§2) MCL cell lines Jeko, Mino, and Rec-1 were provided by American Type Culture Collection: The Bioresource Center (Manassas, Va.). […] Carlsbad, Calif.) in T-75 culture flasks. Cell concentration was maintained between 2 to 3×10^5 cells/mL. Early passage cells (passages 2-4) were used for all experiments. Ficoll-Histopaque density sedimentation (Sigma Aldrich) was used for separation of debris and purification of cell lines prior to experiments. […] The cytotoxic effect of test compounds on the MCL-cell lines was assessed by measuring cell concentration and cell viability using a Beckman Coulter Vi-Cell Counter. Controls and treated cells were harvested and counted at day 3.

MCL-Rec1 = experiment: Mantle Cell Lymphoma Assay: cytotoxicity, Rec-1; type: cell-based; conditions: 72 hrs; for viability at 0.004 µM / viability at 0.037 µM / viability at 0.11 µM / viability at 0.33 µM / viability at 1 µM / viability at 3 µM: Homo sapiens, read-out: Cell Viability (%)
Source text: as §2

MM cell line = experiment: Multiple Myeloma Assay; type: cell-based; conditions: 72 hrs in culture
[4] = system: Jeko, Mino and Rec-1 cells; experiment: cells; type: cell-based; conditions: 72 h, read-out: decrease in cell viability

Which EC50 (Bmi-1 [1]) does the source give for `COc1cc(Br)c(Nc2nc(-c3c(C)nc4ncccn34)cs2)c(Br)c1` [Cpd 1, N-(2,6-dibromo-4-methoxyphenyl)-4-(2-methylimidazo[1,2-a]pyrimidin-3-yl)thiazol-2-amine] here?
Its EC50 is 390 nM.

And the EC50 (Bmi-1 [2])?
The EC50 was 420 nM.

What about the EC50 (Bmi-1 [3]) of the same molecule?
The EC50 was 220 nM.

And the viability at 0.004 µM (MCL-Mino; 0.004 μM)?
Its viability at 0.004 µM is 94.7 ± 0.2%.

What about the viability at 0.037 µM (MCL-Mino; 0.037 μM) of the same molecule?
The viability at 0.037 µM was 95.1 ± 0.2%.

And the viability at 0.11 µM (MCL-Mino; 0.11 μM)?
Its viability at 0.11 µM is 94.6 ± 0.2%.

What about the viability at 0.33 µM (MCL-Mino; 0.33 μM) of the same molecule?
The viability at 0.33 µM was 94.5 ± 0.3%.

And the viability at 1 µM (MCL-Mino; 1 μM)?
Its viability at 1 µM is 89.4 ± 0.4%.

What about the viability at 3 µM (MCL-Mino; 3 μM) of the same molecule?
Its viability at 3 µM is 59.3 ± 0.5%.

And the “Cell Concentration (×10^6)” value (MCL-Mino; 0.004 μM)?
Its value is 1.53 ± 0.07 ×10^6.

What about the “Cell Concentration (×10^6)” value (MCL-Mino; 0.037 μM) of the same molecule?
The value was 1.53 ± 0.05 ×10^6.

And the “Cell Concentration (×10^6)” value (MCL-Mino; 0.11 μM)?
Its value is 1.55 ± 0.02 ×10^6.

And the “Cell Concentration (×10^6)” value (MCL-Mino; 0.33 μM)?
The value was 1.50 ± 0.02 ×10^6.

And the “Cell Concentration (×10^6)” value (MCL-Mino; 1 μM)?
Its value is 0.74 ± 0.02 ×10^6.

And the “Cell Concentration (×10^6)” value (MCL-Mino; 3 μM)?
The value was 0.20 ± 0.01 ×10^6.

And the viability at 0.004 µM (MCL-Rec1; MCL-Rec1, 0.004 μM)?
The viability at 0.004 µM was 91.9 ± 0.5%.

And the viability at 0.037 µM (MCL-Rec1; MCL-Rec1, 0.037 μM)?
Its viability at 0.037 µM is 91.7 ± 0.4%.

And the viability at 0.11 µM (MCL-Rec1; MCL-Rec1, 0.11 μM)?
Its viability at 0.11 µM is 91.7 ± 0.2%.

And the viability at 0.33 µM (MCL-Rec1; MCL-Rec1, 0.33 μM)?
Its viability at 0.33 µM is 90.9 ± 0.2%.

And the viability at 1 µM (MCL-Rec1; MCL-Rec1, 1 μM)?
Its viability at 1 µM is 85 ± 0.6%.

What about the viability at 3 µM (MCL-Rec1; MCL-Rec1, 3 μM) of the same molecule?
Its viability at 3 µM is 56.3 ± 0.4%.

And the “Cell Concentration (×10^6)” value (MCL-Rec1; MCL-Rec1, 0.004 μM)?
The value was 1.66 ± 0.12 ×10^6.

What about the “Cell Concentration (×10^6)” value (MCL-Rec1; MCL-Rec1, 0.037 μM) of the same molecule?
The value was 1.74 ± 0.05 ×10^6.

And the “Cell Concentration (×10^6)” value (MCL-Rec1; MCL-Rec1, 0.11 μM)?
Its value is 1.73 ± 0.02 ×10^6.

What about the “Cell Concentration (×10^6)” value (MCL-Rec1; MCL-Rec1, 0.33 μM) of the same molecule?
Its value is 1.66 ± 0.01 ×10^6.

And the “Cell Concentration (×10^6)” value (MCL-Rec1; MCL-Rec1, 1 μM)?
The value was 0.96 ± 0.08 ×10^6.

What about the “Cell Concentration (×10^6)” value (MCL-Rec1; MCL-Rec1, 3 μM) of the same molecule?
The value was 0.32 ± 0.01 ×10^6.

And the “Cell Concentration, MM cell line” value (MM cell line; dose 0.004 μM)?
Its value is 1.02 ± 0.03 ×10^6.

And the viability at 0.004 µM (MM cell line; dose 0.004 μM)?
The viability at 0.004 µM was 90.07 ± 0.34%.

What about the “Cell Concentration, MM cell line” value (MM cell line; dose 0.037 μM) of the same molecule?
The value was 1.06 ± 0.01 ×10^6.

What about the viability at 0.037 µM (MM cell line; dose 0.037 μM) of the same molecule?
The viability at 0.037 µM was 89.53 ± 0.71%.

And the “Cell Concentration, MM cell line” value (MM cell line; dose 0.11 μM)?
Its value is 1.13 ± 0.02 ×10^6.

And the viability at 0.11 µM (MM cell line; dose 0.11 μM)?
Its viability at 0.11 µM is 90.33 ± 0.1%.

What about the “Cell Concentration, MM cell line” value (MM cell line; dose 0.33 μM) of the same molecule?
Its value is 1.10 ± 0.02 ×10^6.

What about the viability at 0.33 µM (MM cell line; dose 0.33 μM) of the same molecule?
The viability at 0.33 µM was 90.63 ± 0.28%.

What about the “Cell Concentration, MM cell line” value (MM cell line; dose 1 μM) of the same molecule?
Its value is 0.54 ± 0.03 ×10^6.

What about the viability at 1 µM (MM cell line; dose 1 μM) of the same molecule?
The viability at 1 µM was 85.4 ± 0.58%.

What about the “Cell Concentration, MM cell line” value (MM cell line; dose 3 μM) of the same molecule?
The value was 0.39 ± 0.02 ×10^6.

And the viability at 3 µM (MM cell line; dose 3 μM)?
Its viability at 3 µM is 79.03 ± 0.45%.

And the cytotoxicity at 0.08 µM ([4]; Jeko, Mino and Rec-1 cells, 80 nM, 75 nM and 80 nM, after 3 days of treatment)?
The cytotoxicity at 0.08 µM was 70 to 90%.

What does the source list for `COc1ccc(Nc2nc(-c3c(C)nc4ncccn34)cs2)cc1` [Cpd 14, N-(4-methoxyphenyl)-4-(2-methylimidazo[1,2-a]pyrimidin-3-yl)thiazol-2-amine]?
EC50 (Bmi-1 [1]): 3 nM; EC50 (Bmi-1 [2]): 8 nM; EC50 (Bmi-1 [3]): < 4 nM; viability at 0.004 µM (MCL-Mino; 0.004 μM): 92.27 ± 0.38%; viability at 0.037 µM (MCL-Mino; 0.037 μM): 64.5 ± 16.6%; viability at 0.11 µM (MCL-Mino; 0.11 μM): 40.6 ± 1.91%; viability at 0.33 µM (MCL-Mino; 0.33 μM): 18.1 ± 1.78%; viability at 1 µM (MCL-Mino; 1 μM): 13.5 ± 1.85%; viability at 3 µM (MCL-Mino; 3 μM): 14.1 ± 0.28%; Cell Concentration (×10^6) (MCL-Mino; 0.004 μM): 1.26 ± 0.01 ×10^6; Cell Concentration (×10^6) (MCL-Mino; 0.037 μM): 0.66 ± 0.24 ×10^6; Cell Concentration (×10^6) (MCL-Mino; 0.11 μM): 0.23 ± 0.01 ×10^6; Cell Concentration (×10^6) (MCL-Mino; 0.33 μM): 0.06 ± 0.01 ×10^6; Cell Concentration (×10^6) (MCL-Mino; 1 μM): 0.05 ± 0.01 ×10^6; Cell Concentration (×10^6) (MCL-Mino; 3 μM): 0.05 ± 0.00 ×10^6; viability at 0.004 µM (MCL-Rec1; MCL-Rec1, 0.004 μM): 88.1 ± 0.88%; viability at 0.037 µM (MCL-Rec1; MCL-Rec1, 0.037 μM): 84.5 ± 0.66%; viability at 0.11 µM (MCL-Rec1; MCL-Rec1, 0.11 μM): 34.4 ± 3.25%; viability at 0.33 µM (MCL-Rec1; MCL-Rec1, 0.33 μM): 8.93 ± 0.15%; viability at 1 µM (MCL-Rec1; MCL-Rec1, 1 μM): 9.83 ± 0.33%; viability at 3 µM (MCL-Rec1; MCL-Rec1, 3 μM): 9.5 ± 0.35%; Cell Concentration (×10^6) (MCL-Rec1; MCL-Rec1, 0.004 μM): 1.52 ± 0.02 ×10^6; Cell Concentration (×10^6) (MCL-Rec1; MCL-Rec1, 0.037 μM): 1.22 ± 0.02 ×10^6; Cell Concentration (×10^6) (MCL-Rec1; MCL-Rec1, 0.11 μM): 0.24 ± 0.03 ×10^6; Cell Concentration (×10^6) (MCL-Rec1; MCL-Rec1, 0.33 μM): 0.05 ± 0.00 ×10^6; Cell Concentration (×10^6) (MCL-Rec1; MCL-Rec1, 1 μM): 0.05 ± 0.00 ×10^6; Cell Concentration (×10^6) (MCL-Rec1; MCL-Rec1, 3 μM): 0.05 ± 0.00 ×10^6; Cell Concentration, MM cell line (MM cell line; dose 0.004 μM): 0.84 ± 0.01 ×10^6; viability at 0.004 µM (MM cell line; dose 0.004 μM): 84.53 ± 0.4%; Cell Concentration, MM cell line (MM cell line; dose 0.037 μM): 0.22 ± 0.00 ×10^6; viability at 0.037 µM (MM cell line; dose 0.037 μM): 54.4 ± 0.98%; Cell Concentration, MM cell line (MM cell line; dose 0.11 μM): 0.21 ± 0.01 ×10^6; viability at 0.11 µM (MM cell line; dose 0.11 μM): 54.9 ± 2.79%; Cell Concentration, MM cell line (MM cell line; dose 0.33 μM): 0.21 ± 0.01 ×10^6; viability at 0.33 µM (MM cell line; dose 0.33 μM): 57.7 ± 1.33%; Cell Concentration, MM cell line (MM cell line; dose 1 μM): 0.24 ± 0.01 ×10^6; viability at 1 µM (MM cell line; dose 1 μM): 60.9 ± 1.26%; Cell Concentration, MM cell line (MM cell line; dose 3 μM): 0.25 ± 0.01 ×10^6; viability at 3 µM (MM cell line; dose 3 μM): 59.9 ± 1.32%; cytotoxicity at 0.08 µM [4]: 70 to 90%
